Reference: patent WO2020169698A1, “Sensitization of cancer cells to tnf by bet inhibition” (dated 2020)

Key:
HCT116-EBV cells = assay: Epigenetic small molecule screen, negative control coculture with CMV-specific T cells, 48 h; details: Ag- (EBV peptide) coculture, 2.5uM or 5uM
MKN45 cells [1] = assay: CellTiterGlo viability with BET inhibitor + TNF, 72 h; type: cell-based; details: in combination with 15ng/ml TNF vs BET inhibitor single agent, significance for the highest concentration of compound
HCT116 cells [2] = assay: as above; type: cell-based; details: in combination with 15ng/ml TNF vs BET inhibitor single agent, significance for the highest concentration of compound
HCT116-NLV cells = assay: Epigenetic small molecule screen, coculture with CMV-specific T cells, 48 h; type: cell-based, human; details: Ag+ coculture, 2.5uM or 5uM
MC38 cells [3] = assay: Synergy of RG6146 and recombinant TNF (PI positivity, ZIP model); type: cell-based, murine; details: RG6146 + recombinant TNF, 18 hours
AU565 cells = assay: as above; type: cell-based, human; details: RG6146 + recombinant TNF, 18 hours
MC38-Ova cells = assay: OT1 T cell co-culture cytotoxicity (PI positivity), 18 h; type: cell-based, murine; design: dose or concentration left out as unconfirmed; details: RG6146 with OT1 T cells
[4] = tested on: MLL-AF9-driven acute myeloid leukemia cells; assay: OT1 T cell cytotoxicity towards MLL-AF9 AML cells (PI positivity), 16 h; type: cell-based, murine; details: 2.5uM RG6146, 16 hours
MKN45 cells [5] = assay: Viability with CEA-TCB/PBMC conditioned media + RG6146, 72 h; type: cell-based
MKN45 cells [6] = assay: Cleaved PARP Western blot with CEA-TCB conditioned media + RG6146; type: cell-based; details: RG6146 (1 and 2.5 mM as printed) + CEA-TCB conditioned media, 24h; not seen in absence of CEA-TCB
MKN45 cells [7] = assay: Cleaved PARP Western blot with CEA-TCB 2 conditioned media + RG6146; type: cell-based; details: RG6146 (2.5 and 7 mM as printed) + CEA-TCB 2 conditioned media; not seen in absence of CEA-TCB 2
HCT116 cells [8] = assay: as above; type: cell-based; details: RG6146 (2.5 and 7 mM as printed) + CEA-TCB 2 conditioned media; not seen in absence of CEA-TCB 2
HCT116 cells [9] = assay: CEA-TCB bystander killing of CEA negative cells, flow cytometry, 72 h; type: cell-based; details: RG6146 15uM to 0.002uM with CEA-TCB activated T cells
HCT116-GFP cells = assay: CEA-TCB bystander effect on CEA negative cell growth, Incucyte S3; type: cell-based; details: RG6146 combined with CEA-TCB (20nM) vs RG6146 single agent, one week
HCT116 cells [10] = assay: CEA-TCB 2 bystander killing of CEA negative cells, flow cytometry, 72 h; type: cell-based; details: RG6146 15uM to 0.002uM with CEA-TCB 2 activated CTLs
Caspase 3,7 = Caspase 3,7 Glo activity, 8 h; type: cell-based; details: for Caspase 3,7 activity: RG6146 + 15ng/mL TNF vs RG6146 single agent, 8h
Caspase 8 = Caspase 8 Glo activity, 8 h; type: cell-based; details: for Caspase 8 activity: RG6146 + 15ng/mL TNF vs RG6146 single agent, 8h
HCT116 cells [11] = assay: Growth with Caspase 8 knock down, Incucyte S3; type: cell-based; details: 2.5mM (so in the source) RG6146 + 15ng/ml TNF, 7 days
MC38 cells [12] = assay: Cell death of MC38 cells overexpressing Bcl-2 or cFLIP (PI positivity), 18 h; type: cell-based, murine; design: dose or concentration left out as unconfirmed; details: cFLIP overexpression, RG6146 (so in the source) and TNF
MC38 cells [13] = assay: Viability of p-gp 1 expressing MC38 cells with BET inhibitor + TNF +/- Zosuquidar, 72 h; type: cell-based, murine; details: for change in sensitivity by p-gp 1 block with Zosuquidar: 0.5mM (so in the source) Zosuquidar, TNF 15ng/mL, 72 hours, some concentrations tested
[14] = tested on: MC38-huCEA expressing sc tumors; assay: In vivo antitumor efficacy against MC38-huCEA sc tumors; design: species or system mice; details: single agent; JQ1 50mg/kg ip once daily (14x) or CEA-TCB 2.5mg/kg iv twice weekly (4x); last day of study
HCT116 cells [15] = assay: Viability with CEA-TCB/PBMC conditioned media + RG6146, 72 h; type: cell-based; details: 20nM CEA-TCB conditioned media + RG6146 30uM to 0.0005uM
HCT116 cells [16] = details: CEA-TCB; "as has been shown for HCT116 cells that express no CEA"; cited from earlier work
[17] = tested on: CEA on tumor cells and CD3e on T cells; details: mouse models; cited from earlier work
[18] = HCT116 and MKN45 cells, inhibitor with RG6146 + TNF (significance not shown)

O=C(CCCCCCC(=O)Nc1ccccc1)NO [Vorinostat]
viability in negative control coculture (toxicity) (HCT116-EBV cells): decreased viability also in the negative control

COc1cc2c(cc1-c1c(C)noc1C)ncc1[nH]c(=O)n([C@H](C)c3ccccn3)c12 [ΪBET151]
viability (MKN45 cells [1]): significantly decrease viability
viability (HCT116 cells [2]): significantly decrease viability
viability (HCT116-NLV cells): significantly decrease viability

CCNC(=O)c1cc2c(-c3cc(C(C)(C)O)ccc3Oc3c(C)cc(F)cc3C)cn(C)c(=O)c2[nH]1 [ABBV744]
viability (HCT116-NLV cells): significantly decrease viability

Cc1[nH]c2ccccc2c1CCNCc1ccc(/C=C/C(=O)NO)cc1 [Panobinostat]
viability in negative control coculture (toxicity) (HCT116-EBV cells): decreased viability also in the negative control

Cc1sc2c(c1C)C(c1ccc(Cl)cc1)=N[C@@H](CC(=O)Nc1ccc(O)cc1)c1nnc(C)n1-2 [OTX015]
viability (MKN45 cells [1]): significantly decrease viability
viability (HCT116 cells [2]): significantly decrease viability
viability (HCT116-NLV cells): significantly decrease viability

CCS(=O)(=O)Nc1ccc(Oc2ccc(F)cc2F)c(-c2cn(C)c(=O)c3[nH]ccc23)c1 [Mivebresib]
viability (HCT116-NLV cells): significantly decrease viability

Cc1sc2c(c1C)C(c1ccc(Cl)cc1)=N[C@@H](CC(=O)NCCCN1CCN(C)CC1)c1nnc(C)n1-2 [RG6146, 2-[(S)-4-(4-chloro-phenyl)-2,3,9-trimethyl-6H-l-thia-5,7,8,9a-tetraaza-cyclopenta[e]azulen-6-yl]-N-[3-(4-methyl-piperazin-l-yl)-propyl]-acetamide]
viability (MKN45 cells [1]): significantly decrease viability
viability (HCT116 cells [2]): significantly decrease viability
induction of cell death, synergy with TNF (MC38 cells [3]): synergstic
induction of cell death, synergy with TNF (AU565 cells): synergstic
cell death (PI positivity) (MC38-Ova cells): increased cell death
cytotoxic activity of OT1 T cells ([4]; perforin expressing (wild-type) OT1 T cells): augments the cytotoxic activity
cytotoxic activity of OT1 T cells ([4]; perforin-deficient OT1 T cells): augments the cytotoxic activity
viability (MKN45 cells [5]; RG6146 with CEA-TCB supernatant): decrease in viability
cell death (cleaved PARP) (MKN45 cells [6]): able to induce cell death
cell death (cleaved PARP) (MKN45 cells [7]): able to induce cell death
cell death (cleaved PARP) (HCT116 cells [8]): able to induce cell death
cell killing in CEA negative cells (HCT116 cells [9]): able to increase cell killing
cell growth of CEA negative cells (HCT116-GFP cells): significantly decrease cell growth
cell killing in CEA negative cells (HCT116 cells [10]): able to increase cell killing
Caspase 3,7 activity (Caspase 3,7; HCT116 cells): induces Caspase3,7 and 8 activity in HCT-116 and MKN45 cells significantly
Caspase 3,7 activity (Caspase 3,7; MKN45 cells): induces Caspase3,7 and 8 activity in HCT-116 and MKN45 cells significantly
Caspase 8 activity (Caspase 8; HCT116 cells): induces Caspase3,7 and 8 activity in HCT-116 and MKN45 cells significantly
Caspase 8 activity (Caspase 8; MKN45 cells): induces Caspase3,7 and 8 activity in HCT-116 and MKN45 cells significantly
cell growth rescue (HCT116 cells [11]; Caspase 8 knockdown): rescued cell growth under these treatment conditions partially
cell growth (HCT116 cells [11]; scr treated cells): completely blocked HCT116 cell growth
cytotoxic effects of TNF+RG6146 (MC38 cells [12]): abrogate the cytotoxic effects
change in sensitivity by p-gp 1 block with Zosuquidar (MC38 cells [13]): sensitized
sensitivity of p-gp 1 expressing MC38 cells (MC38 cells [13]; compared to JQ1): less sensitive
viability (HCT116-NLV cells): significantly decrease viability

Cc1sc2c(c1C)C(c1ccc(Cl)cc1)=N[C@@H](CC(=O)OC(C)(C)C)c1nnc(C)n1-2 [JQ1]
viability (MKN45 cells [1]): significantly decrease viability
viability (HCT116 cells [2]): significantly decrease viability
change in sensitivity by p-gp 1 block with Zosuquidar (MC38 cells [13]): no change
decreased tumor growth [14]: 50%
viability (HCT116-NLV cells): significantly decrease viability

Nc1ccccc1NC(=O)c1ccc(CNC(=O)OCc2cccnc2)cc1 [Entinostat]
viability in negative control coculture (toxicity) (HCT116-EBV cells): decreased viability also in the negative control

Z-IETD-FMK: Caspase 8 inhibitor Z-IETD-FMK (R&D Systems #FMK007) (not fully specified)
block of downstream Caspase 3,7 activation (Caspase 3,7; [18]): blocked Caspase 8 and downstream Caspase 3,7 activation completely
block of Caspase 8 activation (Caspase 8; [18]): blocked Caspase 8 and downstream Caspase 3,7 activation completely

B1: CEA-TCB: T cell activating bispecific antibody targeting CEA on tumor cells and CD3e on T cells (antibody, chains of the INN, looked up, V domains shown)
VH: QVQLVQSGAEVKKPGASVKVSCKASGYTFTEFGMNWVRQAPGQGLEWMGWINTKTGEATYVEEFKGRVTFTTDTSTSTAYMELRSLRSDDTAVYYCARWDFAYYVEAMDYWGQGTTVTVSS
VL: DIQMTQSPSSLSASVGDRVTITCKASAAVGTYVAWYQQKPGKAPKLLIYSASYRKRGVPSRFSGSGSGTDFTLTISSLQPEDFATYYCHQYYTYPLFTFGQGTKLEIK
VH2: B1 VH
VL2: QAVVTQEPSLTVSPGGTVTLTCGSSTGAVTTSNYANWVQEKPGQAFRGLIGGTNKRAPGTPARFSGSLLGGKAALTLSGAQPEDEAEYYCALWYSNLWVFGGGTKLTVL
combination of cytokines released by CEA-TCB activated T cells with BET inhibition (MKN45 cells [5]; 20nM CEA-TCB conditioned media + RG6146 30uM to 0.0005uM): synergistically combine with BET inhibition
combination of cytokines released by CEA-TCB activated T cells with BET inhibition (HCT116 cells [15]): synergistically combine with BET inhibition
decreased tumor growth [14]: 60%
CTL killing of cells with low or no CEA (HCT116 cells [16]): not able to induce CTL killing
PD-L1/PD-1 pathway [17]: up-regulates
anti-tumor activity [17]: potent anti-tumor activity
intratumoral T cell infiltration [17]: increased intratumoral T cell infiltration
release of pro-inflammatory cytokines such as IFNy, TNF and Granzyme B [17]: increased release of pro-inflammatory cytokines
